In the assay the target is LRRK2 (Homo sapiens, UniProt Q5S007). Briefly: LRRK2 protein kinase assay ([γ-33P] ATP, peptide substrate), KI values of Table 1. It is filed as biochemical. Conditions: LRRK2 affinity values. The source says:
All LRRK2 protein kinases were of human origin and were sourced from Invitrogen Corporation (Carlsbad, Calif. 92008 USA) unless otherwise indicated. The active mutant used was recombinant human, catalytic domain (amino acids 970-2527) containing a G2019S mutation, GST-tagged, expressed in insect cells (Invitrogen Cat#PV4881). The wild type used was recombinant human, catalytic domain (amino acids 970-2527) GST-tagged, expressed in insect cells (Invitrogen Cat#PV4873). The kinase dead mutant used was recombinant human, catalytic domain (amino acids 970-2527) containing a D1994A mutation, GST-tagged, expressed in insect cells (Invitrogen Cat#PM4041AE). No special measures were taken to activate any of the kinases.
All assays were carried out at room temperature (˜21° C.) and were linear with respect to time and enzyme concentration under the conditions used. Assays were performed for 180 min in a 96 well format. LRRK2 was present at a concentration of approximately 5 nM. The enzyme was diluted and assayed in 50 mM Tris-HCl pH7.5, 0.1 mM EGTA, 1 mM DTT and 10 mM MgCl2. The concentration of magnesium chloride in the assay was 10 mM. The [γ-33P] ATP (0.4 μCi/well) was used at 134 uM for G2019S mutant and at 57 μM for the wild type kinase in order to be at Km. The peptide substrate in the assay was […] at 100 μM.
The assays were initiated with Mg/ATP and stopped by the addition of 25 μl/well 50% orthophosphoric acid. Reactions were harvested onto Whatman P81 Unifilter Plates (Fisher Scientific. Loughborough, LE115RG, UK. Cat# FDU-105-020U) using a Tomtec harvester. (Tomtec Hamden, Conn. 06514. USA) Plates were counted using a Perkin Elmer Top Count NX7. (Perkin Elmer, Shelton Conn. 06484-4794 USA)
IC50 values of inhibitors were determined after carrying out assays at 10 different concentrations of each compound in duplicate.
LRRK2, sequence (Q5S007 whole entry G2019S, form open, the tested form may be a part): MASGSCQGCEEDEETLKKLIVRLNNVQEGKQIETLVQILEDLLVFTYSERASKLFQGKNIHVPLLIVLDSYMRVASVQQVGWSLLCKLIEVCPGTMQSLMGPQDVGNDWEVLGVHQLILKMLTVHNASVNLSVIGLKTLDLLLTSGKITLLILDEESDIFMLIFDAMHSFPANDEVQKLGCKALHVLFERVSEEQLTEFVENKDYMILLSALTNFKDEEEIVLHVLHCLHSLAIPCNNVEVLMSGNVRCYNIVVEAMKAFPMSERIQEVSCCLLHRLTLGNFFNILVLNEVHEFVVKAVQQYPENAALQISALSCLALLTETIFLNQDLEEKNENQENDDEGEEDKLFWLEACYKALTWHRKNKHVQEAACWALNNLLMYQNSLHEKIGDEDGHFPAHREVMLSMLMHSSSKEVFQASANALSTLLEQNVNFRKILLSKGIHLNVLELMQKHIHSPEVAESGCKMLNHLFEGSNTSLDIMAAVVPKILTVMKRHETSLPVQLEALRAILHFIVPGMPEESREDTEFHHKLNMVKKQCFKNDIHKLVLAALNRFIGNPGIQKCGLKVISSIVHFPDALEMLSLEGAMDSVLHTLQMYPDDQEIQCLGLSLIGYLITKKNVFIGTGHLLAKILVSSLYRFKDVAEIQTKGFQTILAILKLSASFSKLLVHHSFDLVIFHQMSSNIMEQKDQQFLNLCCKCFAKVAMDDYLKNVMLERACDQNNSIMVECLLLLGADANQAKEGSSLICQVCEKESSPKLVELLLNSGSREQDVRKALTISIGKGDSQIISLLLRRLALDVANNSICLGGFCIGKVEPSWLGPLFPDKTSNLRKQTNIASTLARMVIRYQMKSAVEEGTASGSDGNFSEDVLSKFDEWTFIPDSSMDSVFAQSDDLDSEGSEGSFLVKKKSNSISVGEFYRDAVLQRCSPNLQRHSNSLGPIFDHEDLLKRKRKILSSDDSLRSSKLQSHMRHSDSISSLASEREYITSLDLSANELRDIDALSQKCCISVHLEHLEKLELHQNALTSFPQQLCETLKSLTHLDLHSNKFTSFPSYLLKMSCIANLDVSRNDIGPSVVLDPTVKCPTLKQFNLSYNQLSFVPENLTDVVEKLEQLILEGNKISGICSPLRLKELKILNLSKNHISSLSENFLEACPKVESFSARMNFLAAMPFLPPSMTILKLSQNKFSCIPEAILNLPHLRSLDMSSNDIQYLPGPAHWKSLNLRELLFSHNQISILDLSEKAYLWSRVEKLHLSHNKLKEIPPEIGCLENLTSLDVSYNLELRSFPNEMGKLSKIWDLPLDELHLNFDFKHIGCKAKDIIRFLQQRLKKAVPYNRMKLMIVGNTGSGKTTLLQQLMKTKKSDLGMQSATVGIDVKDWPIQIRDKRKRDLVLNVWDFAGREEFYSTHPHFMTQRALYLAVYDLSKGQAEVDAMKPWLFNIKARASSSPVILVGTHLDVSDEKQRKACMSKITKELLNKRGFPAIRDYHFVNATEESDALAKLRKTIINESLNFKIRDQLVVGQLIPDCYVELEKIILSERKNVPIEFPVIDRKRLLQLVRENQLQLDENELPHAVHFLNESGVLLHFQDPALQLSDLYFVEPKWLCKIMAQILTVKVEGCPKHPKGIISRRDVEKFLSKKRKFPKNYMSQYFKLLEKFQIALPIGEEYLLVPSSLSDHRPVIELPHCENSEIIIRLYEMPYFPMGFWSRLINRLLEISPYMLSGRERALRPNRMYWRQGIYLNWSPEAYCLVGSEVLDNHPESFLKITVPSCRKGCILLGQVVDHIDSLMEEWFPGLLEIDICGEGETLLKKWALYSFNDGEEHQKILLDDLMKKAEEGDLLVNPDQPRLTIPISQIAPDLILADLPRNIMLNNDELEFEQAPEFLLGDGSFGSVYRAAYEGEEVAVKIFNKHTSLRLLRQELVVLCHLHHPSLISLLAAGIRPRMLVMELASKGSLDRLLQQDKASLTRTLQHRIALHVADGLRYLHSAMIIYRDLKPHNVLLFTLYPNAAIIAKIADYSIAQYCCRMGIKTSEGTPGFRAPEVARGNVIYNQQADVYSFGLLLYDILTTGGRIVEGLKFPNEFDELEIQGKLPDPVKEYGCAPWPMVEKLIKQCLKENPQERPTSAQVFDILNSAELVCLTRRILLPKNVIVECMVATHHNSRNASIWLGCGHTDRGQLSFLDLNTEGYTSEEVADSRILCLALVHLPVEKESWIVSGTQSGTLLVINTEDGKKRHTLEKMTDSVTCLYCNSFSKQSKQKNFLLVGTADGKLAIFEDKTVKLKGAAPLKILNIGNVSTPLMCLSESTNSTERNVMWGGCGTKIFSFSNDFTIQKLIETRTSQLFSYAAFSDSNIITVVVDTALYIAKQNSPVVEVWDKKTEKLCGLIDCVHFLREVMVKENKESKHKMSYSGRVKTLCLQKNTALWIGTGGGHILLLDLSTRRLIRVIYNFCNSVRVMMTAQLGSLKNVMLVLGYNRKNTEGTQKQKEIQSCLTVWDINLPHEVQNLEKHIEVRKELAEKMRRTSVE
The compound `Cc1cc(C(F)(F)F)cc(-c2n[nH]c3ccnc(NC4CCOCC4)c23)n1` [Compound 70, 3-(6-methyl-4-(trifluoromethyl)pyridin-2-yl)-N-(tetrahydro-2H-pyran-4-yl)-1H-pyrazolo[4,3-c]pyridin-4-amine] registered an inhibition constant (Ki) of 0.7 nM.

In turn, `Cc1nc(-c2n[nH]c3ccnc(NC4CCOCC4)c23)cc(C(F)(F)F)n1` [Compound 71, 3-(2-methyl-6-(trifluoromethyl)pyrimidin-4-yl)-N-(tetrahydro-2H-pyran-4-yl)-1H-pyrazolo[4,3-c]pyridin-4-amine] gave an inhibition constant Ki of 6.7 nM. For `CC(C)Nc1nccc2[nH]nc(-c3cc(S(C)(=O)=O)ccn3)c12` [Compound 72, N-isopropyl-3-(4-(methylsulfonyl)pyridin-2-yl)-1H-pyrazolo[4,3-c]pyridin-4-amine] the value was 6 nM.

Regarding `FC(F)(F)c1cc(-c2n[nH]c3ccnc(NC(C4CC4)C4CC4)c23)ncn1` [Compound 73, N-(dicyclopropylmethyl)-3-(6-(trifluoro-methyl)pyrimidin-4-yl)-1H-pyrazolo[4,3-c]pyridin-4-amine], the inhibition constant Ki is 2.5 nM. In turn, `CC(C)Nc1nccc2[nH]nc(-c3cc(S(=O)(=O)C(C)C)ccn3)c12` [Compound 74, N-isopropyl-3-(4-(isopropylsulfonyl)pyridin-2-yl)-1H-pyrazolo[4,3-c]pyridin-4-amine] came in with an inhibition constant Ki of 25.8 nM.

`CC(C)S(=O)(=O)c1ccnc(-c2n[nH]c3ccnc(NC4CCOCC4)c23)c1` [Compound 75, 3-(4-(isopropylsulfonyl)pyridin-2-yl)-N-(tetrahydro-2H-pyran-4-yl)-1H-pyrazolo[4,3-c]pyridin-4-amine] came in with a Ki of 23.2 nM. In turn, `Cc1cc(S(C)(=O)=O)cc(-c2n[nH]c3ccnc(NC(C)C)c23)n1` [Compound 76, N-isopropyl-3-(6-methyl-4-(methylsulfonyl)pyridin-2-yl)-1H-pyrazolo[4,3-c]pyridin-4-amine] gave a Ki of 4.5 nM. `FC(F)(F)c1cc(-c2n[nH]c3ccnc(NC4CC5CCC(C4)O5)c23)ncn1` (centres unmarked) [Compound 77, N-(8-oxabicyclo[3.2.1]octan-3-yl)-3-(6-(trifluoromethyl)pyrimidin-4-yl)-1H-pyrazolo[4,3-c]pyridin-4-amine] registered a Ki of 22.6 nM.

These data come from US20140288043A1, “PYRAZOLOPYRIDINE COMPOUNDS” (Genentech, Inc., priority 2013, published 2014).
